{"source": "patent US7964609B2", "about": "“Use of mGluR5 antagonists for the treatment of gerd” (AstraZeneca AB, priority 2002, dated 2011)", "system": "transient lower esophageal sphincter relaxations (TLESRs)", "assay": "Screening for compounds active against TLESR, Barostat model (air infusion to an intragastric pressure of 10±1 mmHg)", "format": "in vivo, Adult Labrador retrievers", "conditions": "dose 1 μmol/kg/h, infusion during 60 min", "procedure": "Adult Labrador retrievers of both genders, trained to stand in a Pavlov sling, are used. Mucosa-to-skin esophagostomies are formed and the dogs are allowed to recover completely before any experiments are done. In brief, after fasting for approximately 17 h with free supply of water, a multilumen sleeve/sidehole assembly ([…], Adelaide, South Australia) is introduced through the esophagostomy to measure gastric, lower esophageal sphincter (LES) and esophageal pressures. The assembly is perfused with water using a low-compliance manometric perfusion pump ([…], Adelaide, South Australia). An air-perfused tube is passed in the oral direction to measure swallows, and an antimony electrode monitored pH, 3 cm above the LES. All signals are amplified and acquired on a personal computer at 10 Hz. When a baseline measurement free from fasting gastric/LES phase III motor activity has been obtained, placebo (0.9% NaCl) or test compound is administered intravenously (i.v., 0.5 ml/kg) in a foreleg vein. […] Immediately following the meal, air is insufflated at 40 ml/min. In an alternative model (Barostat model), the infusion of the nutrient meal is followed by air infusion at a rate of 500 ml/min until a intragastric pressure of 10±1 mmHg is obtained. […]"}
{"smiles": "N#Cc1cc(F)cc(-c2nc(-c3ccc(F)cn3)no2)c1", "note": "[3-fluoro-5-[3-(5-fluoropyridin-2-yl)-1,2,4-oxadiazol-5-yl]benzonitrile]", "values": [{"measurement": "% INHIBITION ± SEM (N)", "result": "70 ± 4 (3) %"}]}
